Our source for the Kd values is PubChem BioAssay AID1549 (Sanford-Burnham Center for Chemical Genomics, 2009).

Activity calls are given as the source filed them. The rule behind the calls is not given here.

For this test, the target named is Influenza A virus M2 proton channel (A/TW/4845/1999 H1N1). Description: M2 proton channel binding, NMR based, influenza A virus H1N1 strain (AID 1549). The settings on record: NMR binding screen, M2 protein.
Consider `N#Cc1cc(-c2ccccc2)oc1N`, for which the Kd was > 4 mM (inactive).

Take `Cc1cc(C(=O)NCc2ccccc2Br)no1`: the Kd was > 4 mM (inactive).

Regarding `O=C1C2CC=CCC2C(=O)N1c1ccccc1O` (stereo not given), the Kd was > 4 mM (inactive).

Turning to `COc1ccccc1NC(C)=O`, the Kd was > 4 mM (inactive).

`OC12C=CC(CC1)CC2`: the Kd was > 4 mM (inactive).

For `O=S(=O)(O)c1nc2ccccc2[nH]1`, the Kd is > 4 mM (inactive).

`CC(C)(C)c1cc(NC(=O)c2cccnc2)no1`: the Kd is > 4 mM (inactive).

With `COc1ccc(C2CC(=O)c3ccc(OC)cc3O2)cc1` (stereo not given), the Kd is > 4 mM (inactive).

Turning to `CC(=O)NC1(NC(C)=O)CCN(C)CC1`, the Kd is > 4 mM (inactive).

On to `Nc1ccc(-c2cnco2)cc1`, for which the Kd is > 4 mM (inactive).

Regarding `Brc1cccc(-c2nnco2)c1`, the Kd is > 4 mM (inactive).

On to `Cn1c(CO)nc2cc(N)ccc21`, for which the Kd is > 4 mM (inactive).

On to `O=C(O)c1ccnc2ccccc12`, for which the Kd was > 4 mM (inactive).

For the molecule `N#CCc1nc2ccccc2s1`, the Kd is > 4 mM (inactive).

As for `C=C(C)[C@H]1CC=C(C(=O)O)CC1`, the Kd was > 4 mM (inactive).

For the molecule `COc1ccccc1CNc1nc2nc(C)cc(=O)n2[nH]1`, the Kd is > 4 mM (inactive).

In the case of `COc1ccc2c(c1)C(NC(C)=O)C(=O)N2C` (stereo not given), the Kd is > 4 mM (inactive).

For the molecule `COc1ccc2c3c([nH]c2c1)C(C)=NCC3`, the Kd is > 4 mM (inactive).

In the case of `c1coc(-c2nc(-c3ccncc3)no2)c1`, the Kd is > 4 mM (inactive).

As for `O=C1CCC(=O)N1c1ccc(F)cc1`, the Kd was > 4 mM (inactive).

For `NCc1cc2ccccc2s1`, the Kd is > 4 mM (inactive).

On to `O=C(c1ccco1)N1CCNCC1`, for which the Kd is > 4 mM (inactive).

Turning to `CC(=O)N(c1ccccc1)C1C=CS(=O)(=O)C1` (stereo not given), the Kd was > 4 mM (inactive).

In the case of `Nc1cccc(CC(=S)N2CCOCC2)c1`, the Kd is > 4 mM (inactive).

Regarding `CC(C)(CO)NC(=O)c1ccccc1F`, the Kd was > 4 mM (inactive).

For the molecule `COC(=O)c1cn(C(=O)OC)c2ccccc12`, the Kd is > 4 mM (inactive).

On to `N#Cc1cccc(Cn2nnc(-c3ccccc3)n2)c1`, for which the Kd was > 4 mM (inactive).

As for `NC(CC(=O)O)c1ccccc1` (stereo not given), the Kd was > 4 mM (inactive).

In the case of `CC(=O)NC(=S)Nc1nc2ccccc2n1C(C)=O`, the Kd was > 4 mM (inactive).

With `CCCCCCCCCCCCCCCCCCOCC(O)CO` (stereo not given), the Kd is > 4 mM (inactive).

For `COC(=O)CC1=Nc2ccccc2NC(=O)C1`, the Kd was > 4 mM (inactive).

With `COC1CC(O[C@H]2CC[C@]3(C=O)C4CC[C@]5(C)C(C6=CC(=O)OC6)CC[C@]5(O)C4CC[C@]3(O)C2)OC(C)C1O` (stereo not given in full), the Kd was > 4 mM (inactive).

On to `COCc1c(CN)cnc(C)c1N`, for which the Kd was > 4 mM (inactive).

For the molecule `OCCNc1ccccn1`, the Kd was > 4 mM (inactive).

Take `Cc1nnc(SCC(=O)Nc2ccccc2)[nH]c1=O`: the Kd is > 4 mM (inactive).

As to `O=C1NCCCC1C(=O)N/N=C/c1ccccc1` (stereo not given), the Kd is > 4 mM (inactive).

Regarding `O=C(O)CCC(=O)Nc1nccs1`, the Kd is > 4 mM (inactive).

As for `Cc1cc(O)cc(=O)o1`, the Kd is > 4 mM (inactive).

As to `CN(C)C(=O)Nc1ccc2c(c1)nnn2C`, the Kd is > 4 mM (inactive).

Consider `c1ccc(-n2nnnc2-n2cnc3ccccc32)cc1`, for which the Kd was > 4 mM (inactive).

For the molecule `C=C1C([C@]2(C)C(CC(=O)OC)[C@@](C)(COC(C)=O)OC(=O)C[C@@H]2OC(C)=O)[C@@H](OC=O)[C@H](OC(=O)C(O)C(C)CC)[C@@]2(C)[C@H](c3ccoc3)CC(=O)C12O` (stereo not given in full), the Kd is > 4 mM (inactive).

For the molecule `Cc1nc(-c2cccc(N)c2)cs1`, the Kd was > 4 mM (inactive).

Regarding `Cc1cc(C)c(NC(=O)CN2CCC(O)CC2)c(C)c1`, the Kd was > 4 mM (inactive).

As to `Nc1cc(F)cc(F)c1`, the Kd was > 4 mM (inactive).

For `CC1(C)CC2C1CCC1(C)OC2(C)CCC1O` (stereo not given), the Kd is > 4 mM (inactive).

As to `O=C(O)c1cccc(N2C(=O)C3CC=CCC3C2=O)c1` (stereo not given), the Kd was > 4 mM (inactive).

For `Cc1nnc(C)n1/N=C/c1cccs1`, the Kd was > 4 mM (inactive).

Consider `CN1CCN(C(=S)c2ccc(N(C)C)cc2)CC1`, for which the Kd was > 4 mM (inactive).

Take `COc1ccc(NC2=NCC(C)S2)cc1` (stereo not given): the Kd was > 4 mM (inactive).

Consider `CC(=O)NC(O)C(=O)c1cccs1` (stereo not given), for which the Kd was > 4 mM (inactive).

Regarding `NC(=O)c1ccc(Cl)c(N2C(=O)CCC2=O)c1`, the Kd is > 4 mM (inactive).

As to `OCc1ccc2nonc2c1`, the Kd was > 4 mM (inactive).

With `COC(=O)C[C@H]1C2(C)CC34OC5(C)O[C@@]6([C@H](OC(C)=O)C(OC(C)=O)[C@]7(C)C(/C(=C(/O)C(C)C)C(=O)O[C@H]7c7ccoc7)[C@@]6(O5)[C@H](OC(C)=O)[C@@]3(O)C2OC(=O)C(C)C)[C@]14C` (stereo not given in full), the Kd is > 4 mM (inactive).

On to `O=C(O)c1ccc(Oc2ccccc2)nc1`, for which the Kd is > 4 mM (inactive).

In the case of `Cc1cc(C(=O)NCc2cccs2)c(C)o1`, the Kd was > 4 mM (inactive).

For the molecule `O=c1ccn(Cc2ccccc2)c(=O)[nH]1`, the Kd is > 4 mM (inactive).

Regarding `COc1ccc2c(c1)OCC(Cc1ccc(OC)c(O)c1)C2=O` (stereo not given), the Kd was > 4 mM (inactive).

Take `Cc1cc(C(=O)NCc2cccs2)cs1`: the Kd is > 4 mM (inactive).

`CC(=O)N=c1cccc(NC(C)=O)n1O`: the Kd was > 4 mM (inactive).

In the case of `COc1ccccc1NC(=O)c1ccc(Br)o1`, the Kd was > 4 mM (inactive).

`Cc1nc(-c2ccc(NS(C)(=O)=O)cc2)cs1`: the Kd was > 4 mM (inactive).

Regarding `CNC(=O)C1CCCN(S(C)(=O)=O)C1` (stereo not given), the Kd was > 4 mM (inactive).

Consider `CC1(NC(=O)NCc2ccccc2)CCS(=O)(=O)C1` (stereo not given), for which the Kd was > 4 mM (inactive).

Consider `C=C[C@@](C)(O)CCC1C(=C)CCC2[C@@](C)(CO)CCC[C@]12C` (stereo not given in full), for which the Kd is > 4 mM (inactive).

For `NC12CC3CC(C1)CC(O)(C3)C2`, the Kd was > 4 mM (inactive).

For the molecule `Cc1ccc(SCCN2C(=O)NC(C)(C)C2=O)cc1`, the Kd is > 4 mM (inactive).

Take `CC(C)c1ccc2c(c1)CCC1C(C)(C(N)=O)CCCC21C` (stereo not given): the Kd is > 4 mM (inactive).

With `NC(=O)c1ccc(C(N)=O)cc1`, the Kd was > 4 mM (inactive).

As to `CSc1ccc(S(=O)(=O)N2CCCC2)cc1`, the Kd is > 4 mM (inactive).

`Cc1cc(=O)cc(C)n1NC(N)=S`: the Kd is > 4 mM (inactive).

For `Cc1c(C)c2c(c(C)c1O)CCC(C)(CCCC(C)CCCC(C)CCCC(C)C)O2` (stereo not given), the Kd is > 4 mM (inactive).

For `O=C(O)c1ccc2snnc2c1`, the Kd is > 4 mM (inactive).

In the case of `O=C(/C=C(\O)c1ccccc1)c1ccccc1O`, the Kd was > 4 mM (inactive).

On to `c1ccc(CCN2CCN(CCc3ccccn3)CC2)nc1`, for which the Kd is > 4 mM (inactive).

`CCCc1cc2c(c(NC(C)=O)n1)c(=O)oc1ccccc12`: the Kd was > 4 mM (inactive).

`O=C1NC(=Nc2ccccc2Cl)SC1(CO)CO`: the Kd was > 4 mM (inactive).

Take `O=c1c(O)c(-c2ccc(O)c(O)c2)oc2cc(O)ccc12`: the Kd was > 4 mM (inactive).

For `COC(=O)c1noc(C)c1C(C)=O`, the Kd is > 4 mM (inactive).

In the case of `CC(=O)Nc1cccc(Cn2cccn2)c1`, the Kd is > 4 mM (inactive).

Take `CC(=O)O[C@@H]1CC2C(C)(C)C(=O)C3OC3[C@]2(C)C2CC[C@@]3(C)[C@H](c4ccoc4)OC(=O)C4OC43[C@@]21C` (stereo not given in full): the Kd is > 4 mM (inactive).

With `C[C@@H]1CC[C@@]2(NC1)O[C@H]1C[C@H]3C4CC=C5C[C@@H](O)CC[C@]5(C)C4CC[C@]3(C)C1[C@@H]2C` (stereo not given in full), the Kd was > 4 mM (inactive).

Take `C/C=C(/C)C(=O)O[C@@H]1[C@H](OC(C)=O)[C@@]2(CO)C(CC1(C)C)C1=CCC3[C@@]4(C)CC[C@H](O[C@@H]5O[C@H](C(=O)O)[C@@H](O[C@@H]6O[C@H](CO)[C@@H](O)[C@H](O)[C@H]6O)[C@H](O)[C@H]5O[C@@H]5O[C@H](CO)[C@@H](O)[C@H](O)[C@H]5O)[C@](C)(CO)C4CC[C@@]3(C)[C@]1(C)C[C@H]2O` (stereo not given in full): the Kd was > 4 mM (inactive).

As for `CC1(O)CC2C(CC1O)C2(C)C` (stereo not given), the Kd was > 4 mM (inactive).

On to `Oc1ccccc1C(=S)N1CCCCCC1`, for which the Kd was > 4 mM (inactive).

For the molecule `O=C(O)c1[nH]nc2c1COc1ccccc1-2`, the Kd is > 4 mM (inactive).

Regarding `Cc1[nH]c2ccccc2c1C=Nn1cncn1`, the Kd was > 4 mM (inactive).

Take `Cn1nnc2c(Cl)ncnc21`: the Kd is > 4 mM (inactive).

Take `COc1ccc2cc3[n+](cc2c1OC)CCc1cc2c(cc1-3)OCO2`: the Kd is > 4 mM (inactive).

As to `Cn1nnc2cc(C(=O)Nc3cccnc3)ccc21`, the Kd was > 4 mM (inactive).

`[O-][n+]1onc2c1CCc1c-2nc(-c2ccccc2)n1O`: the Kd was > 4 mM (inactive).

In the case of `O=C(O)c1cccc2c1OCCCO2`, the Kd was > 4 mM (inactive).

For `NC(=O)CCN1C(=O)c2ccccc2C1=O`, the Kd was > 4 mM (inactive).

Regarding `CC(C)=CCc1c(O)cc2occ(-c3ccc4c(c3)OCO4)c(=O)c2c1O`, the Kd was > 4 mM (inactive).

For `Cn1cc(Cl)c(C(=O)NC2CCCC2)n1`, the Kd was > 4 mM (inactive).

For `CN1CCN(c2ncnc3nc[nH]c23)CC1`, the Kd is > 4 mM (inactive).

As to `O=C1NC(=O)C(Cc2ccccc2)C(=O)N1`, the Kd is > 4 mM (inactive).

For `Nc1nncn1C(=O)c1c(Cl)cccc1Cl`, the Kd was > 4 mM (inactive).

On to `CCSc1n[nH]c(=O)[nH]c1=O`, for which the Kd is > 4 mM (inactive).

Take `CCOc1ccccc1C(=O)NC1=NCCS1`: the Kd is > 4 mM (inactive).

As to `CC(=O)O[C@@H]1CC2C(C)(C)C(=O)C=C[C@]2(C)C2CC[C@@]3(C)[C@H](c4ccoc4)OC(=O)[C@H]4O[C@]43[C@@]21C` (stereo not given in full), the Kd is > 4 mM (inactive).
